Like-named read-outs stand apart in the source and are kept apart here.
How the values were obtained:
[1] = test system: FGF23; experiment: Plasma FGF23 concentration (Meso Scale Discovery assay); assay type: in vivo, human
Protocol: Plasma samples for pharmacodynamic assessments were collected predose on Days 1, 14, and 15 of Cycle 1 and any time on Day 1 (±3 days) of the subsequent cycles. […] Baseline FGF23 concentrations were assessed in plasma samples collected on Days 1 and 15 of Cycle 1 using a commercially available assay (Meso Scale Discovery). […] Inhibition of FGFR2 was assessed using an ex vivo assay that measured phosphorylated FGFR2α concentration following exposure of FGFR2‐amplified gastric cancer cells (KATOIII) to patient plasma.

[2] = test system: advanced solid tumors; experiment: FIGHT-102 efficacy, investigator-assessed RECIST 1.1; assay type: in vivo, human; parameters: key to Best overall response: PR, partial response; SD, stable disease; PD, progressive disease; NE, not evaluable
Protocol: Efficacy assessments occurred at screening (baseline scan) and on Day 15 of every third cycle with a ±2‐day window. Tumor status was assessed by the investigator using appropriate disease‐specific techniques. For solid tumors, the Response Evaluation Criteria in Solid Tumors (RECIST) 1.1 criteria were used,[19] and the recommended method for measuring tumor burden was computed tomography scan. Alternative modalities compatible with RECIST 1.1 could be used at the investigator's discretion provided they were used consistently throughout the study.
Both the efficacy and the safety population included all patients who received at least 1 dose of study drug. The PK/pharmacodynamic population included all patients who received at least one dose of study drug and provided at least one postdose plasma sample for PK/pharmacodynamic measurement. No comparisons are made between patients or against historical controls; only comparisons to pretreatment conditions were made.

[3] = human, in vivo
Protocol: Postdose samples were collected at 0.5, 1, 2, 4, 6, and 8 h on Day 1, and at 1 h on Day 14 of Cycle 1. For patients in the CD regimen, a postdose sample at 6 h on Day 14 was also collected.
Pharmacodynamic data were presented using summary statistics.

[4] = cited from earlier work
[5] = test system: refractory advanced malignancies; settings: cited from earlier work
[6] = FIGHT-101; cited from earlier work
[7] = Part 1, 13.5 mg ID, breast cancer, local no alteration detected
[8] = Part 1, 13.5 mg ID, cholangiocarcinoma, central FGF1 amp, FGFR2 amp
[9] = Part 1, 13.5 mg ID, other (intrahepatic cholangiocarcinoma), central no alteration detected
[10] = Part 1, 13.5 mg ID, other (lower bile duct cancer), central FGF6 mutation (p.S143N)
[11] = Part 1, 18 mg ID, neuroendocrine cancer, local FGF6/23 amp
[12] = Part 1, 18 mg ID, other (intrahepatic cholangiocarcinoma), not tested
[13] = Part 2, 13.5 mg CD, breast cancer, local FGFR1 amp, FGFR3 mutation
[14] = Part 2, 13.5 mg CD, colorectal cancer, central FGFR1 amp
[15] = Part 2, 13.5 mg CD, gallbladder cancer, central FGF3/4/19 amp
[16] = Part 2, 13.5 mg CD, other (prostate cancer), central FGFR1 amp
[17] = Part 2, 13.5 mg CD, other (rectal cancer), central FGFR1 amp
[18] = Part 2, 13.5 mg CD, other (uterine cervix carcinoma), central FGFR2 amp
[19] = Part 2, 13.5 mg CD, urothelial tract/bladder cancer (bladder cancer), central FGF3/4/19 amp, FGFR3 alteration
[20] = Part 2, 13.5 mg CD, urothelial tract/bladder cancer (renal pelvis cancer), central FGF3/4/19 amp
[21] = Part 2, 13.5 mg ID, breast cancer, central FGFR1 amp
[22] = Part 2, 13.5 mg ID, cholangiocarcinoma, central FGFR2 alteration, local FGFR2 translocation
[23] = Part 2, 13.5 mg ID, cholangiocarcinoma, central FGFR3 mutation
[24] = Part 2, 13.5 mg ID, colorectal cancer, central FGFR1 amp
[25] = Part 2, 13.5 mg ID, esophageal cancer, central FGF3/4/12/19 amp
[26] = Part 2, 13.5 mg ID, esophageal cancer, central FGFR1 amp
[27] = Part 2, 13.5 mg ID, lung cancer (NSCLC), central FGFR1 amp, FGF12 amp
[28] = Part 2, 13.5 mg ID, other (apocrine sweat gland carcinoma), central FGFR2 amp
[29] = Part 2, 13.5 mg ID, other (intrahepatic cholangiocarcinoma), central FGFR3 fusion
[30] = Part 2, 13.5 mg ID, other (urachal cancer), central FGF3 amp
[31] = Part 2, 13.5 mg ID, urothelial tract/bladder cancer (bladder cancer), central FGFR3 mutation (p.Y373C)
[32] = Part 2, 13.5 mg ID, urothelial tract/bladder cancer (renal pelvis cancer), central FGF3/4/19 amp

CCN1C(=O)N(c2c(F)c(OC)cc(OC)c2F)Cc2cnc3[nH]c(CN4CCOCC4)cc3c21 [Pemigatinib]
Mean increase of plasma FGF23 ([1]; 9 mg): 2.6 fold
Mean increase of plasma FGF23 ([1]; 13.5 mg): 2.9 fold
Rise of median FGF23 concentration from baseline ([1]; 13.5 mg QD, first 2 weeks of treatment): slightly more than twofold
Mean increase of plasma FGF23 ([1]; 18 mg): 3.9 fold
Patients with elevated FGF23 concentration at Day 15 of Cycle 1 ([1]; 37/41 patients, all doses): 90%
Mean FGF23 concentration ([1]; C1D15, all doses, baseline 198 ± 29): 464 ± 49 pg/mL
Best overall response of complete response or PR ([2]; Part 1): no patient
Median best percentage change from baseline in target lesion size ([2]; Part 1): −2.6%
Best overall response stable disease ([2]; Part 1, 7 patients): 50.0%
Best overall response ([2]; Part 1, 9 mg ID, gastric cancer): SD
Best change in sum of target lesion diameters ([2]; Part 1, 9 mg ID, gastric cancer, central and local not tested): –13.3%
Best overall response ([2]; Part 1, 9 mg ID, other (epithelioid hemangioendothelioma)): SD
Best change in sum of target lesion diameters ([2]; Part 1, 9 mg ID, other (epithelioid hemangioendothelioma), central and local not tested): –12.6%
Best overall response ([2]; Part 1, 9 mg ID, other (medulloblastoma), local no alteration detected): PD
Best change in sum of target lesion diameters [2, 7]: 28.1%
Best overall response [2, 7]: PD
Best change in sum of target lesion diameters [2, 8]: –8.5%
Best overall response [2, 8]: SD
Best overall response ([2]; Part 1, 13.5 mg ID, colorectal cancer, FGFR1 amp): PD
Best change in sum of target lesion diameters ([2]; Part 1, 13.5 mg ID, colorectal cancer, central and local FGFR1 amp): –21.1%
Best overall response ([2]; Part 1, 13.5 mg ID, lung cancer (NSCLC)): SD
Best change in sum of target lesion diameters ([2]; Part 1, 13.5 mg ID, lung cancer (NSCLC), not tested): –29.0%
Best change in sum of target lesion diameters [2, 9]: 4.4%
Best overall response [2, 9]: SD
Best change in sum of target lesion diameters [2, 10]: –5.1%
Best overall response [2, 10]: SD
Best change in sum of target lesion diameters [2, 11]: 37.5%
Best overall response [2, 11]: PD
Best change in sum of target lesion diameters ([2]; Part 1, 18 mg ID, other (intrahepatic cholangiocarcinoma), central none, local FGFR2 fusion): 0%
Best overall response ([2]; Part 1, 18 mg ID, other (intrahepatic cholangiocarcinoma), local FGFR2 fusion): SD
Best change in sum of target lesion diameters [2, 12]: 16.7%
Best overall response [2, 12]: PD
Best overall response ([2]; Part 1, 18 mg ID, other (pancreatic head cancer)): PD
Best change in sum of target lesion diameters ([2]; Part 1, 18 mg ID, other (pancreatic head cancer), local no alteration detected): 1.0%
Median of best percentage change from baseline in target lesion size ([2]; Part 2): 15.2%
Patients achieving PR ([2]; Part 2, 13.5 mg CD): 4 n
Patients achieving PR ([2]; Part 2, 13.5 mg ID): 1 n
Partial response ([2]; Part 2, 5 patients): 16.7%
Stable disease ([2]; Part 2, 6 patients): 20%
Best change in sum of target lesion diameters [2, 13]: 6.4%
Best overall response [2, 13]: NE
Best overall response ([2]; Part 2, 13.5 mg CD, breast cancer, local FGFR2 amp (best change –26.2%)): SD
Best overall response ([2]; Part 2, 13.5 mg CD, breast cancer, local FGFR2 amp (best change –44.4%)): PR
Best change in sum of target lesion diameters ([2]; Part 2, 13.5 mg CD, breast cancer, local FGFR2 amp (patient with PR)): –44.4%
Best change in sum of target lesion diameters ([2]; Part 2, 13.5 mg CD, breast cancer, local FGFR2 amp (patient with SD)): –26.2%
Best change in sum of target lesion diameters ([2]; Part 2, 13.5 mg CD, cholangiocarcinoma, central none, local FGFR2 translocation): –30.6%
Best overall response ([2]; Part 2, 13.5 mg CD, cholangiocarcinoma, local FGFR2 translocation): PR
Best change in sum of target lesion diameters [2, 14]: 26.5%
Best overall response [2, 14]: PD
Best change in sum of target lesion diameters ([2]; Part 2, 13.5 mg CD, colorectal cancer, central none, local FGF19 amp): 41.0%
Best overall response ([2]; Part 2, 13.5 mg CD, colorectal cancer, local FGF19 amp): PD
Best overall response ([2]; Part 2, 13.5 mg CD, esophageal cancer, FGFR3 translocation: fusion): SD
Best change in sum of target lesion diameters ([2]; Part 2, 13.5 mg CD, esophageal cancer, central and local FGFR3 translocation: fusion): –4.3%
Best change in sum of target lesion diameters [2, 15]: –43.8%
Best overall response [2, 15]: PR
Best change in sum of target lesion diameters [2, 16]: 15.2%
Best overall response [2, 16]: PD
Best change in sum of target lesion diameters [2, 17]: 0.0%
Best overall response [2, 17]: SD
Best change in sum of target lesion diameters [2, 18]: 22.7%
Best overall response [2, 18]: PD
Best change in sum of target lesion diameters [2, 19]: –37.2%
Best overall response [2, 19]: PR
Best change in sum of target lesion diameters [2, 20]: 12.1%
Best overall response [2, 20]: PD
Best change in sum of target lesion diameters [2, 21]: 18.1%
Best overall response [2, 21]: PD
Best change in sum of target lesion diameters [2, 22]: –13.8%
Best overall response [2, 22]: SD
Best change in sum of target lesion diameters [2, 23]: 30.9%
Best overall response [2, 23]: PD
Best change in sum of target lesion diameters [2, 24]: 44.7%
Best overall response [2, 24]: PD
Best change in sum of target lesion diameters [2, 25]: 34.9%
Best overall response [2, 25]: PD
Best overall response ([2]; Part 2, 13.5 mg ID, esophageal cancer, central FGF3/4/19 amp, local FGF19 amp): PD
Best change in sum of target lesion diameters [2, 26]: 6.5%
Best overall response [2, 26]: SD
Best change in sum of target lesion diameters ([2]; Part 2, 13.5 mg ID, esophageal cancer, central FGFR1 amp, FGF3/4/19 amp (first of two such patients)): 37.8%
Best overall response ([2]; Part 2, 13.5 mg ID, esophageal cancer, central FGFR1 amp, FGF3/4/19 amp (first of two)): PD
Best change in sum of target lesion diameters ([2]; Part 2, 13.5 mg ID, esophageal cancer, central FGFR1 amp, FGF3/4/19 amp (second of two such patients)): 3.0%
Best overall response ([2]; Part 2, 13.5 mg ID, esophageal cancer, central FGFR1 amp, FGF3/4/19 amp (second of two)): PD
Best change in sum of target lesion diameters ([2]; Part 2, 13.5 mg ID, gallbladder cancer, central none, local FGFR3 mutation): 25.0%
Best overall response ([2]; Part 2, 13.5 mg ID, gallbladder cancer, local FGFR3 mutation): PD
Best change in sum of target lesion diameters [2, 27]: 22.2%
Best overall response [2, 27]: PD
Best change in sum of target lesion diameters [2, 28]: –42.1%
Best overall response [2, 28]: PR
Best change in sum of target lesion diameters [2, 29]: 65.2%
Best overall response [2, 29]: PD
Best change in sum of target lesion diameters [2, 30]: 44.8%
Best overall response [2, 30]: PD
Best overall response ([2]; Part 2, 13.5 mg ID, pancreatic cancer (neuroendocrine), central FGFR1 amp): PD
Best change in sum of target lesion diameters ([2]; Part 2, 13.5 mg ID, pancreatic cancer (neuroendocrine), central FGFR1 amp, local FGFR1 mutation (p.N577K)): 40.8%
Best change in sum of target lesion diameters [2, 31]: –19.6%
Best overall response [2, 31]: SD
Best change in sum of target lesion diameters [2, 32]: 24.2%
Best overall response [2, 32]: PD
Median duration of response ([2]; responders, Part 2, 95% CI: 4.17, 14.95): 9.56 months
Geometric mean fraction of dose excreted in urine [3]: 2.48%
CLss/F, geometric mean (CV%) ([3]; 9 mg): 8.99 (91.0) L/h
CLss/F, mean ± SD ([3]; 9 mg): 10.6 ± 6.31 L/h
tmax, median ([3]; 9 mg): 58 min
CLss/F, geometric mean (CV%) ([3]; 18 mg): 5.63 (43.8) L/h
CLss/F, mean ± SD ([3]; 18 mg): 5.96 ± 2.50 L/h
tmax, median ([3]; 18 mg): 50 min
AUC0-24 geometric mean ([4]; 13.5 mg QD steady state, CV% 54.1): 2620 nM·h
Geometric mean half-life ([4]; 13.5 mg QD, CV% 51.6): 15.4 h
Cmax ([4]; 13.5 mg QD, CV% 56.4, read-out: Steady-state Cmax geometric mean): 236 nM
Terminal half-life ([4]; dose-independent): 15 h
Time to reach Cmax ([4]; doses of ≥6 mg): 1 to 2 h
Median progression-free survival ([5]; FGFR fusions or rearrangements, 95% CI 2.8–10.0): 5.7 months
Objective response rate ([5]; FGFR fusions or rearrangements, 95% CI 8.7–49.1): 25.0%
Partial responses ([5]; across tumor types): 12 n
Objective response rate ([5]; all patients, 95% CI 4.9–15.8): 9.4%
Median duration of response ([5]; all responders, 95% CI 3.3–14.5): 7.3 months
Most common (>30%) overall TEAEs [6]: hyperphosphatemia, fatigue, dry mouth, stomatitis, diarrhea, and alopecia
Recommended dosage for further studies [6]: 13.5 mg QD

Reference: paper PMC10225205 (Cancer Medicine, 2023)
